The record followed here is patent US20080085886A1, “Aza-benzofuranyl compounds and methods of use” (GENENTECH, INC., priority 2006, published 2008).

In assay [1] the test system is cellular p-ERK in HCT116 human colorectal carcinoma / A375 human malignant melanoma cell lines. The assay is described as follows: Phospho-ERK cell-based assay (ELISA), Example 4. The conditions noted are these: in either one of the cell lines (HCT116, A375), 2 h or 24 h exposure. Here is the method:
Example 4 Phospho-ERK Cell-Based Assay
Compounds are tested in a cell-based phospho-ERK ELISA using the following cell lines:
HCT116 human colorectal carcinoma (ATCC)
(§1) A375 human malignant melanoma (ATCC)
(§2) Both cell lines are maintained in DMEM/F12 (1:1) media (Gibco) supplemented with 10% FCS at 37° C. in a 5% CO2 humidified incubator.
Cells are seeded in 96-well plates at 2,000 cells/well and after 24 h they are exposed to different concentrations of compounds in 0.83% DMSO. Cells are grown for a further 2 h or 24 h, fixed with formaldehyde (2% final) and permeabilised with methanol. Following blocking with TBST-3% BSA, fixed cells are incubated with primary antibody (anti-phospho ERK from rabbit) over-night at 4° C. Cells are incubated with Propidium Iodide (DNA fluorescent dye) and detection of cellular p-ERK is performed using an anti-rabbit secondary antibody conjugated to the fluorescent Alexa Fluor 488 dye (Molecular probes). The fluorescence is analysed using the Acumen Explorer (TTP Labtech), a laser-scanning microplate cytometer, and the Alexa Fluor 488 signal is normalised to the PI signal (proportional to cell number).
The EC50 is defined as the concentration at which a given compound achieves a signal half way between the baseline and the maximum response. EC50 values are calculated using the XLfit software package (version 2.0.5).
In general terms: In an ELISA, binding on a coated surface is turned into a signal by an enzyme label.

Assay [2] relates to HCT 116 human colorectal carcinoma / A375 human malignant melanoma cell lines. In words: Cell proliferation assay (CellTiter-Glo), Example 3. Particulars: in either one of the cell lines (HCT 116, A375), 72 h. Format: cell-based. Here is the method:
Example 3 Cell Proliferation Assay
Compounds are tested in a cell proliferation assay using the following cell lines:
HCT 116 human colorectal carcinoma (ATCC)
as §1, §2
Cells are seeded in 96-well plates at 2,000 cells/well and after 24 hours they are exposed to different concentrations of compounds in 0.83% DMSO. Cells are grown for a further 72 h, and an equal volume of CellTiter-Glo reagent (Promega) is added to each well. This lyses the cells and generates a luminescent signal proportional to the amount of ATP released (and therefore proportional to the number of cells in the well) that can be detected using a multiwell luminometer.
EC50 values are calculated using the XLfit software package (version 2.0.5).
(ATP-based viability assays read luminescence as a measure of living cells.)

The structures appear in SMILES notation. Structures can show the parent of a compound that is named as a salt.

Usually EC50 stands for the concentration that produces a half-maximal response. The low end stands for greater potency, the high end for weaker potency. Take `O=C(NOCC1CC1)c1oc2ccncc2c1Nc1ccc(I)cc1F` [Example 8, 3-(2-Fluoro-4-iodo-phenylamino)-furo[3,2-c]pyridine-2-carboxylic acid cyclopropylmethoxy-amide]: the 50% effective concentration (EC50) in assay [1] and in assay [2] was less than 10 µM in each case.
Turning to `O=C(c1oc2ccncc2c1Nc1ccc(I)cc1F)N1CC(O)CO1` (stereo not shown) [Example 28, [3-(2-Fluoro-4-iodo-phenylamino)-furo[3,2-c]pyridin-2-yl]-(4-hydroxy-isoxazolidin-2-yl)-methanone], the EC50 in assay [1] and in assay [2] was less than 10 µM throughout.
Take `CN(c1ccc(I)cc1F)c1c(C(=O)NOCCO)oc2ccncc12` [Example 22, 3-[(2-Fluoro-4-iodo-phenyl)-methyl-amino]-furo[3,2-c]pyridine-2-carboxylic acid (2-hydroxy-ethoxy)-amide]: the EC50 in assay [1] and in assay [2] was less than 10 µM each time.
As for `O=C(NOC[C@H](O)CO)c1oc2c(Cl)cncc2c1Nc1ccc(I)cc1F` [Example 138, 7-Chloro-3-(2-fluoro-4-iodo-phenylamino)-furo[3,2-c]pyridine-2-carboxylic acid ((R)-2,3-dihydroxy-propoxy)-amide], the 50% effective concentration (EC50) in assay [1] and in assay [2] was less than 10 µM each time.
Take `O=C(NOC1CNC1)c1oc2ccncc2c1Nc1ccc(I)cc1F` [Example 41, 3-(2-Fluoro-4-iodo-phenylamino)-furo[3,2-c]pyridine-2-carboxylic acid (azetidin-3-yloxy)-amide mono formate salt]: the EC50 in assay [1] and in assay [2] was less than 10 µM throughout.
Take `O=C(NOC1CCOCC1)c1oc2ccncc2c1Nc1ccc(I)cc1F` [Example 25, 3-(2-Fluoro-4-iodo-phenylamino)-furo[3,2-c]pyridine-2-carboxylic acid (tetrahydro-pyran-4-yloxy)-amide]: the EC50 in assay [1] and in assay [2] was less than 10 µM each time.
For the molecule `O=C(NOC[C@H](O)CO)c1oc2c(Br)cncc2c1Nc1ccc(I)cc1F` [Example 18, 7-Bromo-3-(2-fluoro-4-iodo-phenylamino)-furo[3,2-c]pyridine-2-carboxylic acid ((R)-2,3-dihydroxy-propoxy)amide], the EC50 in assay [1] and in assay [2] was less than 10 µM throughout.
In the case of `Cc1cncc2c(Nc3ccc(I)cc3F)c(C(=O)NOCCO)oc12` [Example 134, 3-(2-Fluoro-4-iodo-phenylamino)-7-methyl-furo[3,2-c]pyridine-2-carboxylic acid (2-hydroxy-ethoxy)-amide], the EC50 in assay [1] and in assay [2] was less than 10 µM throughout.
Turning to `O=C(NOC[C@H](O)CO)c1oc2cnccc2c1Nc1ccc(I)cc1F` [Example 9, 3-(2-Fluoro-4-iodo-phenylamino)-furo[2,3-c]pyridine-2-carboxylic acid ((R)-2,3-dihydroxy-propoxy)-amide], the EC50 in assay [1] and in assay [2] was less than 10 µM throughout.
Take `CC(C)(C)OC(=O)N1CCC(ONC(=O)c2oc3ccncc3c2Nc2ccc(I)cc2F)CC1` [Example 16, 4-{[3-(2-Fluoro-4-iodo-phenylamino)-furo[3,2-c]pyridine-2-carbonyl]aminooxy}-piperidine-1-carboxylic acid tert-butyl ester]: the EC50 in assay [1] and in assay [2] was less than 10 µM throughout.
As to `O=C(NOCCO)c1oc2c(-c3ccccc3)cncc2c1Nc1ccc(I)cc1F` [Example 133, 3-(2-Fluoro-4-iodo-phenylamino)-7-phenyl-furo[3,2-c]pyridine-2-carboxylic acid (2-hydroxy-ethoxy)-amide], the EC50 in assay [1] and in assay [2] was less than 10 µM throughout.
`C=COCCONC(=O)c1oc2ccncc2c1Nc1ccc(I)cc1F` [Example 11, 3-(2-Fluoro-4-iodo-phenylamino)-furo[3,2-c]pyridine-2-carboxylic acid (2-vinyloxy-ethoxy)-amide]: the half-maximal effective concentration (EC50) in assay [1] and in assay [2] was less than 10 µM in each case.
Consider `NCCONC(=O)c1oc2ccncc2c1Nc1ccc(I)cc1F` [Example 31, 3-(2-Fluoro-4-iodo-phenylamino)-furo[3,2-c]pyridine-2-carboxlic acid (2-amino-ethoxy)-amide], for which the EC50 in assay [1] and in assay [2] was less than 10 µM in each case.
With `O=C(NO)c1oc2ccncc2c1Nc1ccc(I)cc1F` [Example 24, 3-(2-Fluoro-4-iodo-phenylamino)-furo[3,2-c]pyridine-2-carboxylic acid hydroxyamide], the EC50 in assay [1] and in assay [2] was less than 10 µM throughout.
